The numbers were not newly measured in patent US6558656B2, “Oral and topical compositions and methods related thereto in the treatment of acne” (priority 2000, dated 2003), which cites them from elsewhere.

Like-named read-outs stand apart in the source and are kept apart here. Where no end group is shown, it is not given here.

In data set [1] the test system is BCO, Candida, or Cryptococcus. As to conditions: immunosuppressed mice infected with BCO.
The subject of a further data set is Newcastle disease virus. Conditions: mice infected with the Newcastle disease virus.
For a further data set, the system named is Candida albicans. Conditions: mice, injection.
For data set [2], the system named is C. albicans, Listeria monocytogenes, Pseudomonas aeruginosa, and Serratia marescens. Conditions: 5-fluorouracil (5FU)- or morphine-immunosuppressed mice, injection.

`CC(C)(CO)[C@@H](O)C(=O)NCCC(=O)O` [Pantothenic acid]: the effectiveness in acne entry in the data set with acne (dosage level of 10 grams per day) is on record as “effective”.
Turning to `[Zn]` [Zinc], the effectiveness in acne entry in the data set with acne (dosage levels of 100-300 mg per day) is on record as “moderately effective”.
In the case of “thymosin α1 (SDAAVDTSSEITTKDLKEKKEVVEEAEN; not fully specified (N-terminus); ends and bridges not checked; UniProt P06454 2-29, looked up) [Tα1, an immunomodulatory peptide of 28 amino acids]”, the survival rate entry in data set [1] is reported as “increased survival rate”. In addition, the “amount of interferon (IFN) produced” value in the data set with Newcastle disease virus was “significant rise”. Moreover, in the data set with Candida albicans, the “resistance to infection with Candida albicans” value is “increased resistance”. In addition, the “protection against opportunistic infections” value in data set [2] is “protect”.
`CC1=C(/C=C/C(C)=C/C=C/C(C)=C\C(=O)O)C(C)(C)CCC1` [isotretinoin]: the sebum production result in the data set on acne (administered orally) is given as “decreasing sebum production”. Further, the side effects entry with acne (in vivo, po) is “potential to induce sever birth defects”. Moreover, in the data set on acne (oral administration), the effectiveness in acne result is “proven effective in the vast majority of cases”.
Regarding `CC1=C(/C=C/C(C)=C/C=C/C(C)=C/CO)C(C)(C)CCC1` [micellized Vitamin A, Vitamin A], the toxicity result in the data set on acne (in vivo) is “known toxicity”. In the data set on acne (very high doses), the effectiveness in acne result is given as “moderately effective”.
